From PubChem BioAssay AID206 (DTP/NCI, 2004)
Values joined by “and” are separate entries in the source; they are usually repeats but may differ in a detail not shown here. Equal values may be shown once. Records with an inconclusive call do not appear.

System: nude mice, HT29 intrarenal xenograft, tumor weight T/C
Experiment: NCI In Vivo Anticancer Drug Screen. Data for tumor model HT29;CX-1 Human Adenocarcinoma (MER+) (intrarenal inoculation) in NU/NU Swiss (nude) mice
Conditions: endpoint: mean tumor weight change, higher = larger tumour
Outline: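 Endpoint measured as tumor size or survival; ratio reported is treated group over vehicle controls.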

[1] = dose: 1.0 mg/kg/injection, schedule: Q04DX004 (sc), vehicle: Klucel (hydroxypropylcellulose) (HPC)

`O=c1cc(-c2ccccc2)[nH]c2c1CCCC2` was tested, and the T/C (dose: 100.0 mg/kg/injection, schedule: Q04DX004 (sc), vehicle: saline with Tween-80) was 82 % of control, the T/C (dose: 200.0 mg/kg/injection, schedule: Q04DX004 (sc), vehicle: saline with Tween-80) was 70 % of control and the T/C (dose: 400.0 mg/kg/injection, schedule: Q04DX004 (sc), vehicle: saline with Tween-80) was 67 % of control. The T/C (dose: 600.0 mg/kg/injection, schedule: Q04DX004 (sc), vehicle: saline with Tween-80) was 37 % of control, the T/C (dose: 800.0 mg/kg/injection, schedule: Q04DX004 (sc), vehicle: saline with Tween-80) was 68 % of control and the T/C (dose: 1200.0 mg/kg/injection, schedule: Q04DX004 (sc), vehicle: saline with Tween-80) was 58 % of control. For the same molecule, the T/C (dose: 2400.0 mg/kg/injection, schedule: Q04DX004 (sc), vehicle: saline with Tween-80) was 101 % of control.
`CN(C)C=O` was tested, and the T/C (dose: 400.0 mg/kg/injection, schedule: Q01DX010 (sc), vehicle: saline) was 186 % of control and the T/C (dose: 3200.0 mg/kg/injection, schedule: Q01DX010 (sc), vehicle: saline) was 48 % of control and 49 % of control.
In the case of `CCCCNC(C)C1(O)Cc2c(O)c3c(c(O)c2C(OC2CC(N)C(O)C(C)O2)C1)C(=O)c1c(OC)cccc1C3=O` (stereo not drawn), the T/C (dose: 100.0 mg/kg/injection, schedule: Q01DX010 (sc), vehicle: water) is reported as 44 % of control.
In the case of `O=C([CH-]C(=O)C(F)(F)F)c1ccccc1.O=C([CH-]C(=O)C(F)(F)F)c1ccccc1.O=C([CH-]C(=O)C(F)(F)F)c1ccccc1.O=C([CH-]C(=O)C(F)(F)F)c1ccccc1.[Eu+3].c1ccncc1`, the T/C (dose: 800.0 mg/kg/injection, schedule: Q01DX010 (sc), vehicle: Klucel (hydroxypropylcellulose) (HPC)) is reported as 10 % of control and 20 % of control (2×).
In the case of `Brc1c(NC2=NCCN2)ccc2nccnc12`, the T/C (dose: 12.5 mg/kg/injection, schedule: Q04DX004 (sc), vehicle: saline) is reported as 113 % of control, the T/C (dose: 25.0 mg/kg/injection, schedule: Q04DX004 (sc), vehicle: saline) is reported as 92 % of control and the T/C (dose: 50.0 mg/kg/injection, schedule: Q04DX004 (sc), vehicle: saline) is reported as 52 % of control. The T/C (dose: 100.0 mg/kg/injection, schedule: Q04DX004 (sc), vehicle: saline) was 93 % of control, the T/C (dose: 200.0 mg/kg/injection, schedule: Q04DX004 (sc), vehicle: saline) was 91 % of control and the T/C (dose: 400.0 mg/kg/injection, schedule: Q04DX004 (sc), vehicle: saline) was 79 % of control.
For `O=C(O)C1(C(=O)O)CCC1.[NH2-].[NH2-].[Pt+2]`, the T/C (dose: 25.0 mg/kg/injection, schedule: Q01DX010 (sc), vehicle: dextrose) was 66 % of control and 91 % of control and the T/C (dose: 50.0 mg/kg/injection, schedule: Q01DX010 (sc), vehicle: dextrose) was 17 % of control.
For `CC1(O)CC23CC(O)C4(O)C(CC(O)C4(C)C)C(C)(O)C2CCC1C3O` (stereo not drawn), the T/C (dose: 0.25 mg/kg/injection, schedule: Q04DX004 (sc), vehicle: Klucel (hydroxypropylcellulose) (HPC)) was 46 % of control, the T/C (dose: 0.5 mg/kg/injection, schedule: Q04DX004 (sc), vehicle: Klucel (hydroxypropylcellulose) (HPC)) was 37 % of control and the T/C [1] was 82 % of control.
In the case of `CS(=O)(=O)CS(=O)(=O)OCCCl`, the T/C (dose: 37.5 mg/kg/injection, schedule: Q04DX004 (sc), vehicle: suspension in saline) is reported as 363 % of control, the T/C (dose: 75.0 mg/kg/injection, schedule: Q04DX004 (sc), vehicle: suspension in saline) is reported as 187 % of control and the T/C (dose: 150.0 mg/kg/injection, schedule: Q04DX004 (sc), vehicle: suspension in saline) is reported as 150 % of control.
`COC1=C(C)C(=O)C2=C(C1=O)C1C3CC4=C(C(=O)C(OC)=C(C)C4=O)C(CNC(=O)C(C)=O)N3C(C#N)C(C2)N1C` (stereo not drawn) was tested, and the T/C [1] was 99 % of control and the T/C (dose: 2.0 mg/kg/injection, schedule: Q04DX004 (sc), vehicle: Klucel (hydroxypropylcellulose) (HPC)) was 75 % of control.
`CO[C@@]12[C@H](COC(N)=O)C3=C(C(=O)C(C)=C(N)C3=O)N1C[C@@H]1N[C@@H]12` was tested, and the T/C (dose: 0.63 mg/kg/injection, schedule: Q04DX004 (sc), vehicle: saline) was 71 % of control, the T/C (dose: 1.5 mg/kg/injection, schedule: Q04DX004 (sc), vehicle: saline) was 10 % of control and the T/C (dose: 2.0 mg/kg/injection, schedule: Q04DX004 (ip), vehicle: saline) was 29 % of control. The T/C (dose: 3.0 mg/kg/injection, schedule: Q04DX003 (sc), vehicle: saline) was 13 % of control, the T/C (dose: 3.0 mg/kg/injection, schedule: Q04DX004 (ip), vehicle: saline) was 8 % of control and the T/C (dose: 3.0 mg/kg/injection, schedule: Q04DX004 (sc), vehicle: saline) was -59 % of control. The T/C (dose: 4.5 mg/kg/injection, schedule: Q04DX004 (ip), vehicle: saline) was -82 % of control and the T/C (dose: 6.0 mg/kg/injection, schedule: Q04DX003 (sc), vehicle: saline) was -37 % of control.
`COc1cc2cc3cc4cc(OC)c(OC)cc4c(C)[n+]3cc2cc1OC` (tested in a mixture with another compound) was tested, and the T/C (dose: 200.0 mg/kg/injection, schedule: Q04DX004 (sc), vehicle: suspension in saline) was 118 % of control, the T/C (dose: 400.0 mg/kg/injection, schedule: Q04DX004 (sc), vehicle: suspension in saline) was 80 % of control and the T/C (dose: 800.0 mg/kg/injection, schedule: Q04DX004 (sc), vehicle: suspension in saline) was 98 % of control.
